Test results: patent publication US20010027216A1, “Method for preventing hormone induced adverse effects” (priority 2000, published 2001)
“Also recorded” adds a separate entry of the source.

What was measured:
Format in all cases: cell-based, human
[1] = system: ECC-1 endometrial cancer cells; assay: ECC-1 cell proliferation, [3H]thymidine incorporation into DNA; details: for cell proliferation rate (cpm): concentration range 0.01 to 4 μM (FIG. 1 panel A); for effect on endometrial cancer cell growth over increasing concentrations: three days
Experimental: Cells were cultured in DMEM containing penicillin (100 U/ml), streptomycin (0.1 mg/ml)) nystatin (12.5 (g/ml), insulin (0.6 (g/ml), and 10% FCS. Cells were stripped of endogenous steroids according to the procedure of Vignon et al. (1987, Biochem. Biophys. Res. Comm., 146:1502-8) by successive passages in medium without phenol red containing 10% and then 3% of charcoal-stripped FCS. Cells were seeded into 96 multiwell plates (5,000 cells per well) in DMEM containing 3% of charcoal-stripped FCS. After one day the medium was changed to one containing the solubilized carotenoid or THF alone. The medium was changed daily to ensure a continuous supply of carotenoid. After incubation, the number of cells and the rate of cell proliferation were estimated by the incorporation of [^3H]thymidine incorporation into cellular DNA, as described in U.S. Pat. No. 5,827,900. Cell growth was also measured by direct cell counting with a Coulter counter after trypsinization and dilution in Isotone-II (Coulter Electronics, Luton, England). A good correlation was found between the two methods. ECC-1 cells were incubated with increasing concentrations of the isoflavones genistein and daidzein, the two primary isoflavones in soy products, and with soy extract. Cell proliferation after three days was measured by [^3H]thymidine incorporation into DNA (FIG. 1, panel A). […] ECC-1 cells were also incubated with a single high concentration (40 μM) of each of genistein, daidzein and soy extract. Cell proliferation was assayed daily over the course of three days.

[2] = system: MDA-231 mammary cancer cells; assay: MDA-231 cell proliferation, [3H]thymidine incorporation
Experimental: (§1) Cells were cultured in DMEM containing penicillin (100 U/ml), streptomycin (0.1 mg/ml)) nystatin (12.5 (g/ml), insulin (0.6 (g/ml), and 10% FCS. Cells were stripped of endogenous steroids according to the procedure of Vignon et al. (1987, Biochem. Biophys. Res. Comm., 146:1502-8) by successive passages in medium without phenol red containing 10% and then 3% of charcoal-stripped FCS. Cells were seeded into 96 multiwell plates (5,000 cells per well) in DMEM containing 3% of charcoal-stripped FCS. After one day the medium was changed to one containing the solubilized carotenoid or THF alone. The medium was changed daily to ensure a continuous supply of carotenoid.
(§2) After incubation, the number of cells and the rate of cell proliferation were estimated by the incorporation of [^3H]thymidine incorporation into cellular DNA, as described in U.S. Pat. No. 5,827,900. Cell growth was also measured by direct cell counting with a Coulter counter after trypsinization and dilution in Isotone-II (Coulter Electronics, Luton, England). A good correlation was found between the two methods.
Thus genistein not only stimulates hormone-dependent cancer cell proliferation, but IGF-I as well as other growth factors further augment this effect.

[3] = system: MCF-7 mammary cancer cells; assay: MCF-7 cell proliferation, [3H]thymidine incorporation; details: for phytoestrogen-induced cell proliferation: genistein 4 μM
Experimental: as §1, §2
The comparative effects of estradiol and genistein supplementation on the proliferation of the hormone-dependent cell lines MCF-7 mammary cancer and ECC-1 endometrial cancer were examined (FIG. 2).
MCF-7 mammary cancer cells were stimulated by genistein (4 μM) and test cultures were additionally supplemented with lycopene or phytoene or a combination of both, at either physiological concentrations (FIG. 6, panel A) or at about one order of magnitude greater than the physiological concentrations (FIG. 6, panel B).

[4] = stimulated by estradiol at 10 nM (FIG. 4)
[5] = stimulated by genistein at 1 μM (FIG. 4)
[6] = 40 μM, after one day of incubation (FIG. 1, panel B)
[7] = 0.4 and 4 μM, after three days (FIG. 1, panel A)
[8] = high, non-physiological concentrations of the individual carotenoids (FIG. 6, panel B)
[9] = lycopene 3 to 5 μM, IGF-1 30 nM
[10] = lycopene 3 to 5 μM, three days in culture

CC1=C(/C=C/C(C)=C/C=C/C(C)=C/C=C/C=C(C)/C=C/C=C(C)/C=C/C2=C(C)CCCC2(C)C)C(C)(C)CCC1 [beta-carotene]
estradiol-induced cell proliferation [1, 4]: effectively inhibited
genistein-induced cell proliferation [1, 5]: effective inhibitors; also recorded: effectively inhibited

O=c1c(-c2ccc(O)cc2)coc2cc(O)ccc12 [daidzein, reference compound]
cell proliferation [1, 6]: significantly increases cell proliferation; also recorded: stimulated cell proliferation
cell proliferation [1, 7]: stimulated cell proliferation
cell proliferation rate (cpm) [1]: significant increase in cell proliferation rate
effect on endometrial cancer cell growth over increasing concentrations [1]: only stimulatory

CC1=C(/C=C/C(C)=C/C=C/C(C)=C/C=C/C=C(C)/C=C/C=C(C)/C=C/C2=C(C)C(=O)[C@@H](O)CC2(C)C)C(C)(C)C[C@H](O)C1=O [astaxanthin]
estradiol-induced cell proliferation [1, 4]: effectively inhibited
genistein-induced cell proliferation [1, 5]: effective inhibitors; also recorded: effectively inhibited

IGF-1: Human recombinant IGF-1 purchased from GroPep
cell growth ([2]; IGF-1 30 nM (FIG. 3, panel B)): significantly stimulates cell growth
cell growth ([3]; IGF-1 30 nM (FIG. 3, panel A)): significantly stimulates cell growth

O=c1c(-c2ccc(O)cc2)coc2cc(O)cc(O)c12 [genistein, reference compound]
stimulation of cell growth by genistein ([2]; FIG. 3, panel B): not by genistein
cell proliferation [1, 6]: significantly increases cell proliferation; also recorded: stimulated cell proliferation
cell proliferation ([1]; 40 μM, second day in culture (FIG. 1, panel B)): inhibitory effects
cell proliferation [1, 7]: stimulated cell proliferation
cell proliferation rate (cpm) [1]: significant increase in cell proliferation rate
cell proliferation ([1]; higher, non-physiological concentrations (10 μM), after three days in culture (FIG. 1, panel A)): inhibited cell proliferation
effect on endometrial cancer cell growth over increasing concentrations [1]: biphasic effects on proliferation, stimulating at low concentrations and inhibiting at high concentrations
effect on proliferation over increasing concentrations ([3]; increasing concentrations (FIG. 2, panel A)): biphasic effects on proliferation, stimulating at low concentrations and inhibiting at high concentrations
stimulatory effect of genistein in the presence of IGF-I ([3]; with IGF-1 30 nM (FIG. 3, panel A)): further augmented

CC(C)=CCC/C(C)=C/CC/C(C)=C/CC/C(C)=C/C=C/C=C(\C)CC/C=C(\C)CC/C=C(\C)CCC=C(C)C [phytoene]
genistein-induced cell proliferation [1, 5]: effective inhibitors
phytoestrogen-induced cell proliferation [3, 8]: effective in significantly inhibiting

CC(C)=CCC/C(C)=C/C=C/C(C)=C/C=C/C(C)=C/C=C/C=C(C)/C=C/C=C(C)/C=C/C=C(\C)CCC=C(C)C [lycopene]
IGF stimulation of cell growth [2, 9]: inhibits IGF stimulation
cell proliferation compared with controls [2, 9]: reduced to levels less than that of controls
estradiol-induced cell proliferation ([1]; estradiol 10 nM, various concentrations of lycopene, lowest 0.9 μM (FIG. 5)): all lycopene concentrations tested were effective in inhibiting
genistein-induced cell proliferation ([1]; genistein 1 μM, various concentrations of lycopene, lowest 0.9 μM (FIG. 5)): all lycopene concentrations tested were effective in inhibiting
basal growth [1, 10]: significantly inhibited
estrogen-induced (either genistein or estradiol) growth [1, 10]: substantially inhibited; also recorded: significantly inhibited
estradiol-induced cell proliferation [1, 4]: effectively inhibited
genistein-induced cell proliferation [1, 5]: effective inhibitors; also recorded: effectively inhibited
phytoestrogen-induced cell proliferation [3, 8]: effective in significantly inhibiting
phytoestrogen-induced cell proliferation ([3]; low (physiological) concentration: lycopene 0.4 μM, mixture of phytoene and phytofluene 6 μM (FIG. 6, panel A)): do not significantly affect
IGF stimulation of cell growth [3, 9]: inhibits IGF stimulation
basal growth [3, 10]: significantly inhibited
estrogen-induced (either genistein or estradiol) growth [3, 10]: substantially inhibited; also recorded: significantly inhibited
